Each structure is given as a SMILES string. Positions of bridges follow the written chain, without caps; N, C: chain ends. Non-standard residues stand in square brackets, D forms with d. Residues, ends and D or L forms follow the SMILES beside them.

Assay type in all cases: in vivo
Holding throughout (conditions): albino male rats, blood 15 min after compound, 5 min after arginine

One assay relates to insulin (INS). Description: Suppression of insulin in arginine-stimulated, nembutal-anesthetized rats. The method, then: (§1) Albino male rats are arranged in two groups (nine rats/group) and injected i.p. with nembutal at 50 mg/kg. Fifteen minutes after the nembutal injection they are injected s.c. according to group with test compound, or physiological saline. Ten minutes later 0.5 ml. of arginine (300 mg/ml. pH 7.2) is injected into the heart. The rats are decapitated five minutes after receiving the arginine, and the blood is collected into Trasylol-EDTA. Appropriate aliquots are then assayed for growth hormone (GH), glucagon (GLUN), and insulin (INS). […] Comparisons between control and experimental values are statistically evaluated by the analysis of variants method and statistical significance (p) at 0.05 or lower is used as the index of activity.

In the next assay the test system is glucagon (GLUN). Description: Suppression of glucagon in arginine-stimulated, nembutal-anesthetized rats. The method, then:
as §1

In a further assay the test system is growth hormone (GH). Description: Suppression of growth hormone in arginine-stimulated, nembutal-anesthetized rats. The method, then: as §1

`C[C@@H](O)[C@@H]1NC(=O)[C@H](Cc2ccccc2)NC(=O)[C@H]([C@@H](C)O)NC(=O)[C@H](CCCCN)NC(=O)[C@@H](Cc2c[nH]c3ccccc23)NC(=O)[C@H](Cc2ccccc2)NC(=O)[C@H](Cc2ccccc2)NC(=O)[C@H](Cc2c[nH]cn2)NC(=O)[C@H](CCCNC(=N)N)NC(=O)[C@@H](N)CSSC[C@@H](C(=O)O)NC(=O)[C@H](CO)NC1=O` [Example 2, L-Cysteinyl-L-Arginyl-L-Histidyl-L-Phenylalanyl-L-Phenylalanyl-D-Tryptophyl-L-Lysyl-L-Threonyl-L-Phenylalanyl-L-Threonyl-L-Seryl-L-Cysteine Cyclic (1-12) Disulfide] (H-CRHFF[dW]KTFTSC-OH; disulfide 1-12): the INS plasma level with insulin (INS) (Experiment 1, 100 μg/kg s.c., saline control 177 ± 19) turned out to be 52 ± 16 μU/ml; in the assay on insulin (INS) (Experiment 2, 10 μg/kg s.c., saline control 262 ± 26) it was 238 ± 72 μU/ml. The GLUN plasma level was 0 ± 0 pg/mL with glucagon (GLUN) (Experiment 1, 100 μg/kg s.c., saline control 61 ± 9) and 4 ± 3 pg/mL with glucagon (GLUN) (Experiment 2, 10 μg/kg s.c., saline control 42 ± 6). Also, the GH plasma level stood at 61 ng/mL in the assay on growth hormone (GH) (Experiment 1, 100 μg/kg s.c., saline control 257 ± 49) and 71 ± 21 ng/mL in the assay with growth hormone (GH) (Experiment 2, 10 μg/kg s.c., saline control 131 ± 43).
